Results on 28 molecules are retold here after US20250099448A1, “HETEROCYCLIC COMPOUNDS” (Hoffmann-La Roche Inc., priority 2022, published 2025).

The experiment has as its target T1, MAGL protein (Homo sapiens, UniProt Q99685).
T1 sequence (Q99685 1-303): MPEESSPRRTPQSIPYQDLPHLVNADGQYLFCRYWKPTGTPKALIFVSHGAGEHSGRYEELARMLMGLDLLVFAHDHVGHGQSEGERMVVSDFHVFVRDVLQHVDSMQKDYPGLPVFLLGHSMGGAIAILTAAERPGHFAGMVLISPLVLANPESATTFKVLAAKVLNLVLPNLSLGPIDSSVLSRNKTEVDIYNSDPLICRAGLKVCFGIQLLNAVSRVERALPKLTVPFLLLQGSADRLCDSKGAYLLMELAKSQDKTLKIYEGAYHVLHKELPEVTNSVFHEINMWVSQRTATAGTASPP
Briefly: 2-AG assay: MAGL inhibitory activity by hydrolysis of 2-arachidonoylglycerol to arachidonic acid, followed by mass spectrometry. The conditions noted are these: 8 μM 2-arachidonoylglycerol, 15 min preincubation, 30 min reaction at RT, RapidFire MS readout. The class given is biochemical. Here is the method:
Compounds of formula (I) were profiled for MAGL inhibitory activity by determining the enzymatic activity by following the hydrolysis of the natural substrate 2-arachidonoylglycerol (2-AG) resulting in arachidonic acid, which can be followed by mass spectrometry. This assay is hereinafter abbreviated “2-AG assay”. The 2-AG assay was carried out in 384 well polypropylene assay plates. Compound dilutions were made in 100% DMSO in a polypropylene plate in 3-fold dilution steps to give a final concentration range in the assay from 12.5 μM to […]. Compound dilutions were added to MAGL protein in assay buffer (50 mM TRIS, 1 mM EDTA, 0.01% (v/v) Tween-20, 2.5% (v/v) DMSO). After shaking, the plate was incubated for 15 min at RT. To start the reaction, 2-arachidonoylglycerol in assay buffer was added. The final concentrations in the assay was […] for MAGL protein and 8 μM 2-arachidonoylglyerol. After shaking and 30 min incubation at RT, the reaction was quenched by the addition of two assay volumes of acetonitrile containing 4 μM of d8-arachidonic acid. The amount of arachidonic acid formed was traced by an online SPE system (Agilent Rapidfire) coupled to a triple quadrupole mass spectrometer. A C18 SPE cartridge (Agilent G9205A) was used in an acetonitrile/water liquid setup. The mass spectrometer was operated in negative electrospray mode following the mass transitions 303.1→259.1 for arachidonic acid and 311.1→267.0 for d8-arachidonic acid. The activity of the compounds was calculated based on the ratio of intensities [arachidonic acid/d8-arachidonic acid].

Turning to `CS(=N)(=O)c1cc(F)ccc1CC1CC2(C1)CN(C(=O)N1CC3(CC(c4nc(C5CC5)n[nH]4)C3)C1)C2` (stereo not shown) [Example 735, [6-(3-cyclopropyl-1H-1,2,4-triazol-5-yl)-2-azaspiro[3.3]heptan-2-yl]-[6-[4-fluoro-2-(methylsulfonimidoyl)benzyl]-2-azaspiro[3.3]heptan-2-yl]methanone], the 50% inhibitory concentration (IC50) (usually the midpoint of a concentration-inhibition curve) turned out to be 2.34 nM.
`CS(=O)(=O)c1ccccc1-c1ccc(C2CN(C(=O)N3CC4(CC(c5nc(C6(O)CC6)n[nH]5)C4)C3)C2)cc1` [Example 781, [6-[3-(1-hydroxycyclopropyl)-1H-1,2,4-triazol-5-yl]-2-azaspiro[3.3]heptan-2-yl]-[3-[4-(2-mesylphenyl)phenyl]azetidin-1-yl]methanone]: the IC50 is 0.93 nM.
Regarding `Cc1cn(-c2ccc(C3CN(C(=O)N4CC5(CC(c6nnc(C7CC7)[nH]6)C5)C4)C3)cc2)cn1` [Example 806, [6-(5-cyclopropyl-4H-1,2,4-triazol-3-yl)-2-azaspiro[3.3]heptan-2-yl]-[3-[4-(4-methylimidazol-1-yl)phenyl]azetidin-1-yl]methanone], the IC50 was 9.72 nM.
In turn, `O=C(N1CC2(CC(c3nnc(C4CC4)[nH]3)C2)C1)C12C3C4C1C1C2C3C41Nc1cnc(C(F)(F)F)cn1` (stereo not shown) [Example 811, [6-(5-cyclopropyl-4H-1,2,4-triazol-3-yl)-2-azaspiro[3.3]heptan-2-yl]-[4-[[5-(trifluoromethyl)pyrazin-2-yl]amino]cuban-1-yl]methanone] registered an IC50 of 0.43 nM.
On to `Cc1cc(C(F)(F)F)cnc1OC1CC2(CCN(C(=O)N3CC4(CC(c5nc(C6CC6)n[nH]5)C4)C3)CC2)C1` [Example 836], for which the IC50 came out at 0.08 nM.
`Cc1sc(-c2ccc(C3CN(C(=O)N4CC5(CC(c6nnc(C7CC7)[nH]6)C5)C4)C3)cc2)nc1C(C)O` (stereo not shown) [Example 840, [6-(5-cyclopropyl-4H-1,2,4-triazol-3-yl)-2-azaspiro[3.3]heptan-2-yl]-[3-[4-[4-(1-hydroxyethyl)-5-methyl-thiazol-2-yl]phenyl]azetidin-1-yl]methanone] returned an IC50 of 2.91 nM.
In turn, `O=C(N1CCN(Cc2ccc(C(F)(F)F)nc2)CC1)N1CC2(CC(c3nnc(C4CC4)[nH]3)C2)C1` [Example 842] gave an IC50 of 133 nM.
Then `NC1(c2nnc(C3CC4(C3)CN(C(=O)N3CC5(CC(Cc6ccc(C(F)(F)F)cc6F)C5)C3)C4)[nH]2)CC1` [Example 852, [6-[5-(1-aminocyclopropyl)-4H-1,2,4-triazol-3-yl]-2-azaspiro[3.3]heptan-2-yl]-[6-[[2-fluoro-4-(trifluoromethyl)phenyl]methyl]-2-azaspiro[3.3]heptan-2-yl]methanone], with 0.06 nM.
For `O=C(N1CC2(CC(Cc3ccc4c(C(F)(F)F)cn(CCO)c4n3)C2)C1)N1CC2(CC(c3nc(C4CC4)n[nH]3)C2)C1` [Example 858] the value was 0.02 nM; for `COc1cc(C#N)ccc1COC1CCN(C(=O)N2CC3(CC(c4nnc(C5CC5)[nH]4)C3)C2)CC1` [Example 861], 59.6 nM; for `O=C(N1CCC(c2nn(C[C@H](O)C(F)(F)F)c3ccc(Cl)cc23)CC1)N1CC2(CC(c3nnc(C4CC4)[nH]3)C2)C1` [Example 864], 14.3 nM.
Molecule `O=C(N1CCC(c2nn(C[C@@H](O)C(F)(F)F)c3ccc(Cl)cc23)CC1)N1CC2(CC(c3nnc(C4CC4)[nH]3)C2)C1` [Example 865, [4-[5-chloro-1-[(2R)-3,3,3-trifluoro-2-hydroxy-propyl]indazol-3-yl]piperidino]-[6-(5-cyclopropyl-4H-1,2,4-triazol-3-yl)-2-azaspiro[3.3]heptan-2-yl]methanone] displayed a half-inhibitory concentration (IC50) of 19.4 nM.
`O=C(c1ccc(-c2ccccn2)s1)N1CCN(C(=O)N2CC3(CC(c4nnc(C5CC5)[nH]4)C3)C2)CC1` [Example 870, [4-[6-(5-cyclopropyl-4H-1,2,4-triazol-3-yl)-2-azaspiro[3.3]heptane-2-carbonyl]piperazino]-[5-(2-pyridyl)-2-thienyl]methanone] returned an IC50 of 821 nM.
The molecule `CNc1ccc(C(=O)N2CCN(C(=O)N3CC4(CC(c5nnc(C6CC6)[nH]5)C4)C3)CC2)cc1` [Example 871, [4-[6-(5-cyclopropyl-4H-1,2,4-triazol-3-yl)-2-azaspiro[3.3]heptane-2-carbonyl]piperazino]-[4-(methylamino)phenyl]methanone] registered an IC50 of 342 nM.
For `Cc1csc(C(=O)N2CCN(C(=O)N3CC4(CC(c5nnc(C6CC6)[nH]5)C4)C3)CC2)c1` [Example 872, [4-[6-(5-cyclopropyl-4H-1,2,4-triazol-3-yl)-2-azaspiro[3.3]heptane-2-carbonyl]piperazino]-(4-methyl-2-thienyl)methanone] the value was 1040 nM; for `O=C(N1CCN(Cc2ccc(C(F)(F)F)cn2)CC1)N1CC2(CC(c3nnc(C4CC4)[nH]3)C2)C1` [Example 876], 806 nM; for `Cc1nc(CN2CCN(C(=O)N3CC4(CC(c5nc(C6CC6)n[nH]5)C4)C3)CC2)co1` [Example 879, [6-(3-cyclopropyl-1H-1,2,4-triazol-5-yl)-2-azaspiro[3.3]heptan-2-yl]-[4-[(2-methyloxazol-4-yl)methyl]piperazino]methanone], 300 nM.
For the molecule `Cc1ncsc1CN1CCN(C(=O)N2CC3(CC(c4nc(C5CC5)n[nH]4)C3)C2)CC1` [Example 880, [6-(3-cyclopropyl-1H-1,2,4-triazol-5-yl)-2-azaspiro[3.3]heptan-2-yl]-[4-[(4-methylthiazol-5-yl)methyl]piperazino]methanone], the IC50 was determined as 832 nM.
For `Cc1nn(C)c(Cl)c1CN1CCN(C(=O)N2CC3(CC(c4nc(C5CC5)n[nH]4)C3)C2)CC1` [Example 881, [4-[(5-chloro-1,3-dimethyl-pyrazol-4-yl)methyl]piperazino]-[6-(3-cyclopropyl-1H-1,2,4-triazol-5-yl)-2-azaspiro[3.3]heptan-2-yl]methanone] the value was 670 nM; for `COc1cc(C(N)=O)ccc1COC1CCN(C(=O)N2CC3(CC(c4nnc(C5CC5)[nH]4)C3)C2)CC1` [Example 885, 4-[[1-[6-(5-cyclopropyl-4H-1,2,4-triazol-3-yl)-2-azaspiro[3.3]heptane-2-carbonyl]-4-piperidyl]oxymethyl]-3-methoxy-benzamide], 352 nM.
In the case of `COc1cc(Cl)ccc1CN(C)C1CN(C(=O)N2CC3(CC(c4nnc(C5CC5)[nH]4)C3)C2)C1` [Example 891, [3-[(4-chloro-2-methoxy-benzyl)-methyl-amino]azetidin-1-yl]-[6-(5-cyclopropyl-4H-1,2,4-triazol-3-yl)-2-azaspiro[3.3]heptan-2-yl]methanone], the IC50 was 34 nM.
Take `CS(=O)(=O)c1cc(Cl)ccc1CC1CC2(CCN(C(=O)N3CC4(CC(c5nnc(C6CC6)[nH]5)C4)C3)C2)C1` (stereo not shown) [Example 892, [2-(4-chloro-2-mesyl-benzyl)-6-azaspiro[3.4]octan-6-yl]-[6-(5-cyclopropyl-4H-1,2,4-triazol-3-yl)-2-azaspiro[3.3]heptan-2-yl]methanone]: the IC50 was found to be 12.3 nM.
`COc1cc(Cl)ccc1CN(C)C1CCN(C(=O)N2CC3(CC(c4nnc(C5CC5)[nH]4)C3)C2)CC1` [Example 893, [4-[(4-chloro-2-methoxy-benzyl)-methyl-amino]piperidino]-[6-(5-cyclopropyl-4H-1,2,4-triazol-3-yl)-2-azaspiro[3.3]heptan-2-yl]methanone] came in with an IC50 of 95.2 nM.
For `Cc1csc(CN2CC3(C2)CN(C(=O)N2CC4(CC(c5nnc(C6CC6)[nH]5)C4)C2)C3)n1` [Example 895, [6-(5-cyclopropyl-4H-1,2,4-triazol-3-yl)-2-azaspiro[3.3]heptan-2-yl]-[6-[(4-methylthiazol-2-yl)methyl]-2,6-diazaspiro[3.3]heptan-2-yl]methanone] the value was 23.5 nM; for `NC(=O)c1cc(Cl)cnc1OCC1CCN(C(=O)N2CC3(CC(c4nc(C5CC5)n[nH]4)C3)C2)CC1` [Example 899], 100 nM.
Then `Cn1ccc(CN2CC3(C2)CN(C(=O)N2CC4(CC(c5nc(C6CC6)n[nH]5)C4)C2)C3)n1` [Example 902, [6-(3-cyclopropyl-1H-1,2,4-triazol-5-yl)-2-azaspiro[3.3]heptan-2-yl]-[6-[(1-methylpyrazol-3-yl)methyl]-2,6-diazaspiro[3.3]heptan-2-yl]methanone], with 3110 nM; and `O=C(N1CCC(COc2ccc(C(F)(F)F)nc2)CC1)N1CC2(CC(c3nnc(C4CC4)[nH]3)C2)C1` [Example 903], with 125 nM.
As to `COc1cc(COC2CCN(C(=O)N3CC4(CC(c5nc(C6CC6)n[nH]5)C4)C3)CC2)ccc1C#N` [Example 904], the midpoint of inhibition, the IC50, lay at 159 nM.
